Results published in EP0804408B1, “NOVEL 4-SUBSTITUTED 2,6-DI-TERT-BUTYLPHENOL COMPOUNDS, PHARMACEUTICAL COMPOSITIONS CONTAINING SAME AND PREPARATION METHOD THEREFOR” (priority 1994, dated 1996).

Tested on: NO-synthase inductible (iNOS)
Test: iNOS induction test: nitrites in RAW264.7 supernatants by Griess reaction after nitrate reduction
Type: cell-based, murins
Settings: IFNγ + LPS
Source text: Cette hypothèse a été contrôlée en dosant les nitrites dans des surnageants de culture de macrophages murins de lignées activées en présence de AVF1. Les nitrites ont été dosés par la réaction de Griess après réduction de tous le nitrates grâce à la nitrate réductase de Pseudomonas oleoverans (Granger et al., J. Immunol., 1991, 146, 1294-1302). La spécificité de la réaction a été prouvée par l'emploi d'un inhibiteur spécifique de la synthèse du monoxyde d'azote, la N^G-monométhyl-L-arginine (L-NMMA).
Le test d'induction iNOS consiste à ensemencer les macrophages RAW264.7 dans des plaques à 24 puits à raison de 1 x 10^6 sous 1,6 ml. Après 24 heures de culture permettant d'obtenir un tapis cellulaire complet, AVF1, dilué de raison 10 dans des des doses ne donnant pas de toxicité cellulaire (de 10^-6 à 10^-8 %), est ajouté dans 100 µl par cupule soit sur des macrophages sans activateur, avec ou sans l'inhibiteur de iNOS (action directe du produit sur les macrophages) soit en présence des inducteurs, avec ou sans inhibiteur (action du produit sur des macrophages activés).
Après 24 heures de culture, les surnageants sont prélevés, centrifugés 10 minutes à 100 g à température ambiantes pour éliminer les éventuels débris cellulaires puis utilisés pour le dosage des nitrites.
Deux volumes des surnageants clarifiés sont réduits en présence d'un volume d'une suspension de Pseudomonas oleovorans à 100 mg/ml et un volume de D-MEM sans rouge de phénol. Après une incubation de 90 minutes à 37°C sans agitation, les mélanges sont centrifugés 5 minutes à 4 000 g pour éliminer les bactéries et dilués au 1/5 et au 1/10 en eau distillée stérile.
100 µl des échantillons réduits et dilués sont distribués dans des séries de 2 puits dans une plaque ELISA (maxicorp, Nunc.). 200 µl du réactif de Griess (mélange ex-temporané volume à volume des solutions de sulfamide à 1,5 g/100 ml de HCl 1,2 N (87,1 mM) - réactif A - et de naphtylènediamine à 0,15 g/100 ml d'eau stérile (5,78 mM) - réactif B -) sont ajoutés.
Cent autres µl d'échantillon servant de blanc de DO sont distribués et mélangés à 200 µl d'un mélange ex-temporané volume à volume d'eau distillée et du réactif colorimétrique A.
Après 30 minutes à température ambiante à l'obscurité, la densité optique (DO) des échantillons est lue à 540 nm au lecteur de plaque pour ELISA.
• Les contrôles du système d'induction iNOS sont composés de : • . Témoin cellules consistant en des macrophages ne recevant que du milieu de culture. • . Témoin d'induction consistant en des macrophages traités par 100 µl de lipopolysaccharide (LPS à 4 µg/ml, Difco) et par 100 µl d'interféron-γ recombinant (IFN-γ à 1 µU/ml, Boerhinger-Mannheim) afin d'activer la iNOS (Schmidt et al., Mol. Pharmacol., 1992, 41, 614-624). Les solutions mères de LPS et de IFN-γont été conservées respectivement à +4°C et à -20°C avant utilisation. • . Témoin d'inhibition spécifique pour prouver que les nitrites dosés proviennent de l'activation de la iNOS. Il consiste à incorporer à la culture un inhibiteur spécifique, la L-NMMA (N^G-monométhyl-L-arginine, Calbiochem) (Hibbs et al., Science, 1987, 235, 473-476) à des concentrations de raison 10 allant de 3 à 300 µM. Cette solution a été conservée sous parties aliquotes à -20°C avant utilisation. • Les contrôles de la réaction de Greiss sont composés de : • . Une solution de nitrate de sodium qui permet de contrôler l'activité nitrate-réductase des bactéries. • . Une gamme étalon de nitrite de sodium qui permet de doser les nitrites dans les échantillons. • Le blanc de DO de la gamme étalon contenant 100 µl d'eau distillée et 200 µl du mélange des réactifs A et B.

[1] = L-NMMA (300 µM) alone (no AVF1)

Structure (SMILES): CNC(=N)NCCC[C@H](N)C(=O)O [L-NMMA, N^G-monométhyl-L-arginine, reference compound]
- Concentration moyenne en nitrites en µM sur 2 échantillons (L-NMMA (3 µM) alone (no AVF1)): 20,9 µM
- Pourcentage d'inhibition de la production de nitrite (L-NMMA (3 µM) alone (no AVF1)): 0%
- Concentration moyenne en nitrites en µM sur 2 échantillons (L-NMMA (30 µM) alone (no AVF1)): 14,7 µM
- Pourcentage d'inhibition de la production de nitrite (L-NMMA (30 µM) alone (no AVF1)): 29%
- Concentration moyenne en nitrites en µM sur 2 échantillons [1]: 9,3 µM
- Pourcentage d'inhibition de la production de nitrite [1]: 55%
